Publication PMC4910235, “Selenophene and thiophene-core estrogen receptor ligands that inhibit motility and development of parasitic stages of Haemonchus contortus” (Parasites & Vectors, 2016)
Where two headings read alike, the source gives them in different places.

Columns and labels:
[1] = system: xL3 stage of H. contortus; assay: Scanning electron microscopy of treated xL3s; format: cell-based, Haemonchus contortus; details: 100 μM, 24 h
Protocol: (§1) SEM was used to assess whether compounds that reduced motility by ≥ 70 % caused structural damage to the larval stages. The xL3s and L4s were cultivated as described previously. Compounds were diluted to a final concentration of 100 μM in LB*, and 50 μl were transferred to wells of a 96-well microculture plate; six wells were used for each treatment and for the negative control which contained LB* and 1 % methanol (AR1115-P2.5 L, RCI; Labscan Limited). The xL3s and L4s were resuspended in LB* at a density of ~6,000 per ml, and 50 μl were transferred into individual wells. Compounds were incubated with the larvae for 24 h at 38 °C and 10 % CO2. Following incubation, for each treatment, the larvae from each of the six wells were pooled into 1.5 ml Eppendorf tubes, washed 3 times in 0.9 % saline at 9,000 g and resuspended in 1 ml of phosphate-buffered saline (PBS). Subsequently, the larvae were fixed in 2.5 % glutaraldehyde in PBS for 2 h at room temperature, rinsed three times in PBS for 15 min, and then post-fixed in 1 % osmium tetroxide for 2 h at room temperature. Fixed larvae were rinsed again 3 times in PBS for 15 min. Then, aliquots of concentrated larvae (200 μl) were incubated on polyethyleneimine (PEI)-coated glass coverslips (pre-prepared by smearing 22 mm square glass coverslips with a 0.1 % solution of PEI and dried by heat under a cool flame). Following this incubation, the excess supernatant was removed, and the coverslips with adhered nematodes were dehydrated in increasing concentrations of ethanol (10, 30, 50, 70, 90 and 100 %) in water for 30 min. The coverslips were dried in a critical point dryer (EM CPD030, Leica, Wetzlar, Germany) and mounted on to aluminium stubs (25 mm) with double-sided carbon tabs. The coverslips were then coated with gold using a Xenosput sputter coater (Dynavac, Australia). The larvae on the coverslips were imaged using a field-emission scanning electron microscope (XL30 Philips, Netherlands) at 2.0 kV using a spot size of two; 12 representative images were taken of each sample.

L4 stage of H. contortus = assay: Scanning electron microscopy of treated L4s; format: cell-based, Haemonchus contortus; details: 100 μM, 24 h
Protocol: as §1

[2] = system: development of xL3s to L4s of H. contortus; assay: L4 development assay (xL3 to L4); format: cell-based; details: Haemonchus contortus, 168 h, read-out: L4 development (IC50s in μM)
Protocol: The selenophene and thiophene-core ligands (n = 74) (Additional file 1) were screened at a concentration of 20 μM on exsheathed third-stage larvae (xL3s) of H. contortus in 96-well microculture plates (cat. no. 3635; Corning 3650, Life Sciences, Corning, USA) using relevant control compounds (i.e. moxidectin and monepantel), as described previously. In brief, compounds were dissolved to a stock concentration of 10 mM in either dimethyl sulfoxide (DMSO) or methanol (Sigma-Adrich Scientific, St. Louis, USA). These ligands were then individually diluted to the final concentration of 20 μM using Luria Bertani medium (LB) supplemented with 100 IU/ml of penicillin, 100 μg/ml of streptomycin and 2.5 μg/ml of amphotericin (LB*). Compounds were dispensed (in triplicate) into the wells of a 96-well microculture plate using a multichannel pipette. In addition, the negative controls (LB*, LB* + 0.5 % solvent; six wells each), and positive controls (20 μM of monepantel; Zolvix, Novartis Animal Health, Basel, Switzerland and 20 μM of moxidectin; Cydectin, Virbac, Carros, France; triplicate wells) and xL3s (~300/well) were dispensed into wells of the plate using an automated multichannel pipette (Viaflo Assist/II, Integra Biosciences, Zizers, Switzerland). Following a 72 h incubation at 38 °C and 10 % CO2, a video recording (5 s) was taken of each well of the 96-well microculture plate (containing xL3s) using a greyscale camera (Rolera Bolt CMOS, Qimaging Scientific, Surrey, Canada) and a motorised X-Y axis stage (BioPoint 2, Ludl Electronics Products, Hawthorne, USA). Individual videos were processed to calculate a motility index (MI) using an algorithm described previously. MIs were normalised to the negative and positive controls (to remove plate-to-plate variation) using the program Prism (v.6 GraphPad Software, USA). Z’-scores were calculated to validate the performance of the screening assay; reliable assays achieve Z’-scores of between 0.5 and 1 [28]. A compound was recorded as having an activity if it reduced xL3 motility by ≥ 70 % following incubation for 72 h. […] Compounds that reduced the motility of xL3s were also tested for their ability to inhibit the motility of L4s (same protocol as for xL3s) and/or to affect the development of xL3s to L4s. Following the measurement of L4 motility, larvae were re-incubated for 4 more days and fixed with 1 % iodine (50 μl). Then, L4 development was assessed based on the presence of a well-developed mouth/pharynx using a light microscope and expressed as a percentage of the total number of larvae examined (n = 30).
All assays (to assess xL3 motility, L4 development and L4 motility) were performed in triplicate, three times, on separate days.

SMILES	structural damage of xL3s by SEM [1]	cuticle damage of L4s by SEM (L4 stage of H. contortus)	IC50 ([2]; 7 days) [µM]	IC50 [2] [µM]
Oc1ccc(-c2cscc2-c2ccc(O)cc2Cl)c(Cl)c1 [MJ-17]	no structural damage	distinct damage	13.7	
Oc1ccc(-c2ccc(-c3ccc(O)cc3Cl)[se]2)c(Cl)c1 [WZY-2]	no structural damage	distinct damage		12.2
Cc1cc(O)ccc1-c1ccc(-c2ccc(O)cc2F)s1 [MJ-22]	no structural damage	distinct damage	10.5	
C[C@](C#N)(COc1cc(C#N)ccc1C(F)(F)F)NC(=O)c1ccc(SC(F)(F)F)cc1 [Monepantel, reference compound]		cuticle damage	0.4	
CO/N=C1\C[C@]2(C[C@@H]3C[C@@H](C/C=C(\C)C[C@@H](C)/C=C/C=C4\CO[C@@H]5[C@H](O)C(C)=C[C@@H](C(=O)O3)[C@]45O)O2)O[C@H](/C(C)=C/C(C)C)[C@H]1C [Moxidectin, reference compound]		did not induce any cuticle damage	12.3	
